{"source": "patent US20160002667A1", "about": "“PSEUDOMONAS EXOTOXINS FOR CANCER TREATMENT” (RUSH UNIVERSITY MEDICAL CENTER, priority 2013, published 2016)", "key": {"[1]": {"test_system": "4T1 metastatic breast cancer cells", "type": "cell-based", "details": "cisplatin 50 uM, PI fluorescence", "experimental": "The cell death stain propidium iodide (PI) was added and the cells were observed by time-lapse videomicroscopy. Cytotoxicity was determined by measuring the PI fluorescence intensity at each time point using ImageJ (NIH).\nCells were observed by time-lapse videomicroscopy in the presence of the cell death dye propidium iodide."}, "[2]": {"test_system": "various cancer cell lines", "experiment": "Propidium iodide time-lapse cytotoxicity / mean time to death in various cancer cell lines infected with P. aeruginosa expressing exotoxin", "type": "cell-based", "details": "listed cancer cell lines, FIG. 4", "experimental": "FIG. 4 is a table summarizing the effect of Pseudomonas exotoxins on various cancer cell lines. Pseudomonas exotoxins are able to kill a variety of cancer cell lines. Listed cell lines were infected with Pseudomonas aeruginosa expressing either ExoU, ExoS, or ExoT in the presence of the cell death dye propidium iodide and observed by time-lapse videomicroscopy. Based on PI staining analysis, the mean time to death was determined for each cell line. […] (ND: no death).\nFor example, ExoU kills 100% of highly metastatic breast cancer cell line 4T1 within 2-3 hours, as indicated by propidium iodide (PI) staining (red) in FIG. 1."}, "A375 cells [3]": {"test_system": "A375 cells", "type": "cell-based", "details": "versus GAP domain alone, GAP/ADPRT double mutant or GFP alone", "experimental": "B16 and A375 cells were transfected with either GFP-fused ExoT, GAP and/or ADPRT domain mutants or GFP vector alone. Cytotoxicty was determined by positive propidium iodide staining.\nWe also discovered that ExoT is effective in killing the melanoma cell lines B16 and A375. B16 cells shown here were transfected with either a GFP expressing vector or ExoT directly fused to GFP. Cells were imaged in the presence of the cell death dye propidium iodide and observed by time-lapse videomicroscopy."}, "A375 cells [4]": {"test_system": "A375 cells", "experiment": "Mitotic events by time-lapse video microscopy after transfection", "type": "cell-based", "details": "vector alone ~33%", "from_the_text": "A375 cells were transfected with ExoT, the GAP or ADPRT domain mutants or GFP vector alone. Cells were observed by time-lapse video microscopy. The number of mitotic events per cells in each field of view was counted."}, "B16 cells": {"test_system": "B16 cells", "experiment": "Cell motility tracking by time-lapse video microscopy", "type": "cell-based", "details": "tracked over a 10 h period, versus GFP transfected cells", "experimental": "B16 cells were transfected with ExoT, the GAP or ADPRT domain mutants or GFP vector alone. Cells were observed by time-lapse video microscopy and tracked over a 10 h period using ImageJ (NIH). The mean track length during this time is shown. […] Importantly, ExoT could have an impact on reducing metastasis of cancer cells."}, "A375 melanoma cells": {"test_system": "A375 melanoma cells", "experiment": "Proliferation by phase time-lapse videomicroscopy after transfection", "type": "cell-based"}, "HeLa cells": {"test_system": "HeLa cells", "experiment": "Apoptosis and apoptotic compensatory proliferation signaling", "type": "cell-based", "from_the_text": "It has long been postulated that dying cells induce compensatory proliferation in neighboring cells as a means to control homeostasis and maintain tissue integrity but the players and the mechanisms involved in the compensatory proliferation signaling have remained unknown."}, "[5]": {"test_system": "cancer cells that are resistant to its cytotoxicity", "experiment": "G1 cell cycle arrest in cancer cells resistant to ExoT cytotoxicity", "type": "cell-based", "details": "all cancer cells examined that are resistant to ExoT cytotoxicity", "from_the_text": "(v) Exotoxin T is also a potent anti-proliferative agent. […] This feature can be quite useful in combination therapy."}, "[6]": {"details": "synthetic substrate; cited from earlier work"}, "Rho, Rac, and Cdc42": {"test_system": "Rho, Rac, and Cdc42", "details": "cited from earlier work"}}}
{"substance": "ExoS", "values": [{"measurement": "cytotoxicity compared with cisplatin", "setting": "[1]", "value": "more potent cytotoxicity than cisplatin"}, {"measurement": "speed of killing and potency (mean time to death by PI staining)", "setting": "[2]", "value": "fastest killing and greatest potentcy"}]}
{"substance": "ExoT", "values": [{"measurement": "cytotoxicity compared with cisplatin", "setting": "[1]", "value": "more potent cytotoxicity than cisplatin"}, {"measurement": "speed of killing and potency (mean time to death by PI staining)", "setting": "[2]", "value": "less potent and unable to kill some cell lines"}, {"measurement": "cytotoxicity (positive propidium iodide staining)", "setting": "A375 cells [3]", "value": "significantly greater cytotoxicity"}, {"measurement": "mitotic cells", "setting": "A375 cells [4]", "value": "complete block of mitotic cells"}, {"measurement": "mean track length", "setting": "B16 cells", "value": "significantly shorter track lengths"}, {"measurement": "cell division", "setting": "A375 melanoma cells", "value": "blocked cell division"}, {"measurement": "apoptosis", "setting": "HeLa cells; HeLa", "value": "induces potent apoptosis"}, {"measurement": "formation of compensatory complexes and induction of proliferation in surrounding cells", "setting": "HeLa cells; apoptotic HeLa cells", "value": "interferes with the ability of apoptotic HeLa cells to form compensatory complexes and induce proliferation in the surrounding cells"}, {"measurement": "cell cycle arrest", "setting": "[5]", "value": "complete G1cell cycle arrest"}, {"measurement": "ADPRT activity in vitro compared to ExoS", "setting": "[6]", "value": 0.2, "unit": "%"}]}
{"substance": "R149K: ExoT with the invariant arginine of the GAP domain mutated to lysine", "values": [{"measurement": "GAP activity in vitro", "setting": "Rho, Rac, and Cdc42", "value": "complete loss of GAP activity"}]}
